Like-named read-outs stand apart in the source and are kept apart here. Ends that are not written are not given here.
How the values were obtained:
[1] = resistance to degradation in plasma, assay by RP-HPLC; details: incubation in plasma for 60 minutes
Method: In all assays, the plasma is prepared by collecting blood into heparinized tubes, placing the tubes on ice and centrifuging at about 3,000 rpm for 10 minutes in a tabletop centrifuge. The separated plasma is stored at 4°C.
In this assay, the analog is added to plasma for various times and recovered similarly to the method described above for radiolabel sequencing analysis. Specifically, the analog at a concentration of 100 nM in RIA buffer is spiked into 1 mL plasma to a final concentration of 1 nM and after incubation in 37°C circulating water bath for various preset times, the reaction is stopped by bringing the plasma to 0.1% (w/v) in bacitracin.
The peptides are then purified by Sep-Pak extraction as described above. The eluates are concentrated to about 1 mL on a Speed-vac, diluted with 1 mL distilled water, frozen at 80°C and lyophilized overnight. The powder is resuspended in 0.5 mL Buffer C (0.1% TFA in water) per mL starting plasma and 0.25 mL are injected on a Hewlett-Packard 1090L liquid chromatograph using an Alltech* C18 column (0.45 x 25 cm; 10 µm particle size) with a Brownlee 2 cm C18 guard column. The extraction is monitored at OD214 throughout the run and the solvent flow rate was 1 mL/minute. A gradient between Buffer C and Buffer D (0.1% TFA in acetonitrile) is set up over a 40 minute run time. The gradient starts at 35% D is held for the first 2 minutes after injection and then increased to 42% D over 24 minutes. The gradient is then increased to 60% D over the next two minutes, held at this level for 2 minutes and returned to 35% D over the next 2 minutes. The %D remains at 35% for the remaining 8 minutes of the run. Fractions are collected at 0.5 minute intervals for the first 30 minutes of each run and dried in a Speed-vac.

[2] = test system: RIN 1046-38 cells
Method: An additional test for potency of the compounds of the invention measures their ability to stimulate cAMP production in RIN 1046-38 cells. This assay can be conducted as follows:
On day 1, 5 x 10^5 RIN 1046-38 cells (Drucker, D.J., et al., Proc Natl Acad Sci USA (1987) 84:3434-3438) are seeded into individual wells of 6-well dishes with 2.5 mL M199 culture medium. On day 4, cells are re-fed with fresh medium and on day 5 the assay is performed. At this time there are ~2.0-2.5 x 10^6 cells per well. Assays are only performed on cell passage <24.
At time -60 min, monolayers are washed twice with 2.5 mL PBS, and medium is changed to 1.0 mL of DMEM medium plus 4.5 g/l glucose and 0.1% BSA (assay medium). At 0 time, medium is aspirated and fresh assay medium, 1.0 mL, containing test compound is added. Test compound is added in 50 ul volume of PBS plus 0.1% BSA; controls are added in vehicle alone. Incubation is continued for 0 to 60 min.
At termination, conditioned medium and monolayer are harvested to measure both extra- and intracellular cAMP content. For extracellular measurement, medium is removed and centrifuged to remove any cellular debris. For intracellular determination, after medium removal, 1.0 mL of ice cold 95% ethanol is added to monolayer. Cells are collected by scraping, lysed by two cycles of quick freeze/thawing using liquid N2, and cell debris then removed by centrifugation. Aliquots (1/40th well content) of conditioned medium and ethanol cell extract are measured in duplicate for cAMP levels using an RIA kit by the acetylated protocol.
Insulin secretion can also be measured by the method described by Holst, J.J., et al. FEBS Letters (1987) 211:169-174 (supra). Also useful as an assay for insulinotropic effect is the measurement of stimulation of adenylate cyclase in the RIN 1046-38 cell line. Drucker, D.J. et al., Proc Natl Acad Sci USA (1987) 84:3434-3438 (supra).

Molecule	Resistance to Degradation [1]	ED50 nM Duplicate Assays [2] [nM]	ED50 nM Duplicate Assays ([2]; first of the duplicate assays) [nM]	ED50 nM Duplicate Assays ([2]; second of the duplicate assays) [nM]
GLP-1(7-37)			0.16	0.25
GLP-1(4-37) (FERHAEGTFTSDVSSYLEGQAAKEFIAWLVKGRG; Glucagon-like peptide 1; UniProt P01275 95-128, looked up, fragment) [reference compound]			130	200
GLP-1(3-37) (EFERHAEGTFTSDVSSYLEGQAAKEFIAWLVKGRG; Glucagon-like peptide 1; UniProt P01275 94-128, looked up, fragment) [reference compound]			70	81
GLP-1(1-37) [reference compound]			>1000	2900
GLP-1(5-37) (ERHAEGTFTSDVSSYLEGQAAKEFIAWLVKGRG; Glucagon-like peptide 1; UniProt P01275 96-128, looked up, fragment) [reference compound]			150	750 to 970
gastric inhibitory peptide [GIP, reference compound]			10.0	37.5

Further lines, with some results ahead:

Resistance to Degradation [1]	Molecule	ED50 nM Duplicate Assays [2] [nM]	ED50 nM Duplicate Assays ([2]; first of the duplicate assays) [nM]	ED50 nM Duplicate Assays ([2]; second of the duplicate assays) [nM]
+	CC[C@H](C)[C@H](NC(=O)[C@H](Cc1ccccc1)NC(=O)[C@H](CCC(=O)O)NC(=O)[C@H](CCCCN)NC(=O)[C@H](C)NC(=O)[C@H](C)NC(=O)[C@H](CCC(N)=O)NC(=O)CNC(=O)[C@H](CCC(=O)O)NC(=O)[C@H](CC(C)C)NC(=O)[C@H](Cc1ccc(O)cc1)NC(=O)[C@H](CO)NC(=O)[C@H](CO)NC(=O)[C@@H](NC(=O)[C@H](CC(=O)O)NC(=O)[C@H](CO)NC(=O)[C@@H](NC(=O)[C@H](Cc1ccccc1)NC(=O)[C@@H](NC(=O)CNC(=O)[C@H](CCC(=O)O)NC(=O)[C@H](C)NC(=O)[C@H](Cc1c[nH]cn1)NC(C)=O)[C@@H](C)O)[C@@H](C)O)C(C)C)C(=O)N[C@@H](C)C(=O)N[C@@H](Cc1c[nH]c2ccccc12)C(=O)N[C@@H](CC(C)C)C(=O)N[C@H](C(=O)N[C@@H](CCCCN)C(=O)NCC(=O)N[C@@H](CCCNC(=N)N)C(=O)NCC(=O)O)C(C)C [(N-acetyl-H) ^7-GLP-1(7-37), (N-acetyl-H)^7-GLP-1(7-37)]	15.5		
-	CC[C@H](C)[C@H](NC(=O)[C@H](Cc1ccccc1)NC(=O)[C@H](CCC(=O)O)NC(=O)[C@H](CCCCN)NC(=O)[C@H](C)NC(=O)[C@H](C)NC(=O)[C@H](CCC(N)=O)NC(=O)CNC(=O)[C@H](CCC(=O)O)NC(=O)[C@H](CC(C)C)NC(=O)[C@H](Cc1ccc(O)cc1)NC(=O)[C@H](CO)NC(=O)[C@H](CO)NC(=O)[C@@H](NC(=O)[C@H](CC(=O)O)NC(=O)[C@H](CO)NC(=O)[C@@H](NC(=O)[C@H](Cc1ccccc1)NC(=O)[C@@H](NC(=O)CNC(=O)[C@H](CCC(=O)O)NC(=O)[C@H](C)NC(=O)[C@@H](N)Cc1ccc(O)cc1)[C@@H](C)O)[C@@H](C)O)C(C)C)C(=O)N[C@@H](C)C(=O)N[C@@H](Cc1c[nH]c2ccccc12)C(=O)N[C@@H](CC(C)C)C(=O)N[C@H](C(=O)N[C@@H](CCCCN)C(=O)NCC(=O)N[C@@H](CCCNC(=N)N)C(=O)NCC(=O)O)C(C)C [(Y)^7-GLP-1(7-37)]	5.0		
-	CC[C@H](C)[C@H](NC(=O)[C@H](Cc1ccccc1)NC(=O)[C@H](CCC(=O)O)NC(=O)[C@H](CCCCN)NC(=O)[C@H](C)NC(=O)[C@H](C)NC(=O)[C@H](CCC(N)=O)NC(=O)CNC(=O)[C@H](CCC(=O)O)NC(=O)[C@H](CC(C)C)NC(=O)[C@H](Cc1ccc(O)cc1)NC(=O)[C@H](CO)NC(=O)[C@H](CO)NC(=O)[C@@H](NC(=O)[C@H](CC(=O)O)NC(=O)[C@H](CO)NC(=O)[C@@H](NC(=O)[C@H](Cc1ccccc1)NC(=O)[C@@H](NC(=O)CNC(=O)[C@H](CCC(N)=O)NC(=O)[C@H](C)NC(=O)[C@@H](N)Cc1c[nH]cn1)[C@@H](C)O)[C@@H](C)O)C(C)C)C(=O)N[C@@H](C)C(=O)N[C@@H](Cc1c[nH]c2ccccc12)C(=O)N[C@@H](CC(C)C)C(=O)N[C@H](C(=O)N[C@@H](CCCCN)C(=O)NCC(=O)N[C@@H](CCCNC(=N)N)C(=O)NCC(=O)O)C(C)C [(Q)^9 GLP-1 (7-37)]			
-	CC[C@H](C)[C@H](NC(=O)[C@H](Cc1ccccc1)NC(=O)[C@H](CCC(=O)O)NC(=O)[C@H](CCCCN)NC(=O)[C@H](C)NC(=O)[C@H](C)NC(=O)[C@H](CCC(N)=O)NC(=O)CNC(=O)[C@H](CCC(=O)O)NC(=O)[C@H](CC(C)C)NC(=O)[C@H](Cc1ccc(O)cc1)NC(=O)[C@H](CO)NC(=O)[C@H](CO)NC(=O)[C@@H](NC(=O)[C@H](CC(=O)O)NC(=O)[C@H](CO)NC(=O)[C@@H](NC(=O)[C@H](Cc1ccccc1)NC(=O)[C@@H](NC(=O)CNC(=O)[C@H](CCC(=O)O)NC(=O)[C@H](C)NC(=O)[C@@H](N)CCCCN)[C@@H](C)O)[C@@H](C)O)C(C)C)C(=O)N[C@@H](C)C(=O)N[C@@H](Cc1c[nH]c2ccccc12)C(=O)N[C@@H](CC(C)C)C(=O)N[C@H](C(=O)N[C@@H](CCCCN)C(=O)NCC(=O)N[C@@H](CCCNC(=N)N)C(=O)NCC(=O)O)C(C)C [(K)^7-GLP-1(7-37)]	350.0		
-	HSQGTFTSDYSKYLDGQAAKEFIAWLVKGRG [(S)^8(Q)^9(Y)^16(K)^18(D)^21-GLP-1(7-37)]	0.31		
+	CC[C@H](C)[C@H](NC(=O)[C@H](Cc1ccccc1)NC(=O)[C@H](CCC(=O)O)NC(=O)[C@H](CCCCN)NC(=O)[C@H](C)NC(=O)[C@H](C)NC(=O)[C@H](CCC(N)=O)NC(=O)CNC(=O)[C@H](CCC(=O)O)NC(=O)[C@H](CC(C)C)NC(=O)[C@H](Cc1ccc(O)cc1)NC(=O)[C@H](CO)NC(=O)[C@H](CO)NC(=O)[C@@H](NC(=O)[C@H](CC(=O)O)NC(=O)[C@H](CO)NC(=O)[C@@H](NC(=O)[C@H](Cc1ccccc1)NC(=O)[C@@H](NC(=O)CNC(=O)[C@H](CCC(=O)O)NC(=O)[C@H](C)NC(=O)[C@H](CCCCN)NC(C)=O)[C@@H](C)O)[C@@H](C)O)C(C)C)C(=O)N[C@@H](C)C(=O)N[C@@H](Cc1c[nH]c2ccccc12)C(=O)N[C@@H](CC(C)C)C(=O)N[C@H](C(=O)N[C@@H](CCCCN)C(=O)NCC(=O)N[C@@H](CCCNC(=N)N)C(=O)NCC(=O)O)C(C)C [(N-acetyl-K)^7 GLP-1 (7-37)]			
+	CC[C@H](C)[C@H](NC(=O)[C@H](Cc1ccccc1)NC(=O)[C@H](CCC(=O)O)NC(=O)[C@H](CCCCN)NC(=O)[C@H](C)NC(=O)[C@H](C)NC(=O)[C@H](CCC(N)=O)NC(=O)CNC(=O)[C@H](CCC(=O)O)NC(=O)[C@H](CC(C)C)NC(=O)[C@H](Cc1ccc(O)cc1)NC(=O)[C@H](CO)NC(=O)[C@H](CO)NC(=O)[C@@H](NC(=O)[C@H](CC(=O)O)NC(=O)[C@H](CO)NC(=O)[C@@H](NC(=O)[C@H](Cc1ccccc1)NC(=O)[C@@H](NC(=O)CNC(=O)[C@H](CCC(=O)O)NC(=O)[C@H](C)NC(=O)[C@H](Cc1c[nH]cn1)NC(C)C)[C@@H](C)O)[C@@H](C)O)C(C)C)C(=O)N[C@@H](C)C(=O)N[C@@H](Cc1c[nH]c2ccccc12)C(=O)N[C@@H](CC(C)C)C(=O)N[C@H](C(=O)N[C@@H](CCCCN)C(=O)NCC(=O)N[C@@H](CCCNC(=N)N)C(=O)NCC(=O)O)C(C)C [(N-isopropyl-H) ^7-GLP-1(7-37), (N-isopropyl-H)^7-GLP-1(7-37)]	15.5		
